Source: patent US11786537B2 (priority 2022, dated 2023)
Entries after “also recorded” stand apart in the source; their conditions may differ.

How the values were obtained:
VERO-E6 cells = assay: MTT cytotoxicity assay (CC50); assay type: cell-based; conditions: 24 h, in words
Method: To assess the half maximal cytotoxic concentration (CC50), stock solutions of the test compounds were prepared in 10% DMSO in ddH2O and diluted further to the working solutions with DMEM. The cytotoxic activity of the extracts was tested in VERO-E6 cells by using the 3-(4,5-dimethylthiazol-2-yl)-2,5-diphenyltetrazolium bromide (MTT) method with minor modifications. Briefly, the cells were seeded in 96 well-plates (100 μl/well at a density of 3×10^5 cells/ml) and incubated for 24 h at 37° C. in 5% CO2. After 24 h, cells were treated with various concentrations of the tested compounds in triplicates. 24 h later, the supernatant was discarded, and cell monolayers were washed with sterile 1× phosphate buffer saline (PBS) 3 times and MTT solution (20 μl of 5 mg/ml stock solution) was add to each well and incubated at 37° C. for 4 h followed by medium aspiration. In each well, the formed formazan crystals were dissolved with 200 μl of acidified isopropanol (0.04 M HCl in absolute isopropanol=0.073 ml HCL in 50 ml isopropanol). Absorbance of formazan solutions was measured at λ max 540 nm with 620 nm as a reference wavelength using a multi-well plate reader. […]

[1] = system: SARS-CoV-2 (hCoV-19/Egypt/NRC-03/2020); assay type: cell-based

Row | Substance | toxicity (VERO-E6 cells) | antiviral activity against SARS-CoV-2 [1] | inhibitory effect / viral inhibition [1]
1 | 4,4-bis[(dimethylamino)methoxy]-7,7′-dihexyl-10,10′-dimethyl-3,3′-bis(4-nitrophenyl)-8,8′-dioxo-4,4′-spirobi[5-oxa-2,7-diaza-3-azonia-4λ^6-cuprabicyclo[4.4.0]deca-1(6),2,9-triene]-9,9′-dicarbonitrile [Complex D1] | low toxicity | active antiviral activity; also recorded: significant antiviral activity | somewhat higher inhibitory effect compared to D2; also recorded: acceptable range of viral inhibition
2 | 7,7′-dihexyl-10,10′-dimethyl-8,8′-dioxo-3,3′-bis(p-tolyl)-4,4′-spirobi[5-oxa-2,7-diaza-3-azonia-4λ^4-cuprabicyclo[4.4.0]deca-1(6),2,9-triene]-9,9′-dicarbonitrile [Complex D2] | low toxicity | active antiviral activity; also recorded: significant antiviral activity | acceptable range of viral inhibition
